Measured values reported in patent US11116819B2, “Methods and compositions for mobilizing stem cells” (President and Fellows of Harvard College, priority 2013, dated 2021).
Entries after “also recorded” stand apart in the source; their conditions may differ.

How the values were obtained:
[1] = test system: HSPC; test: HSPC mobilization in mice (background statements, GRO-β and heparin); assay type: in vivo; conditions: unlike G-CSF; data not shown
Protocol: It does so acutely, mobilizing HSPC maximally by 15 minutes post infusion in mice. […] It is an excellent candidate to serve as a niche-vacating agent. We have also recently identified a novel involvement of heparan sulfate proteoglycans […] in HSC retention in the bone marrow that can be manipulated pharmacologically to induce stem cell mobilization of cells functionally distinctive from those mobilized by G-CSF. This process is one that involves the use of heparin and AMD3100 and achieves robust mobilization using approved agents that can quickly move to clinical trial.

[2] = test system: HSPC; conditions: cited from earlier work
[3] = test system: CD34+ cells; conditions: cited from earlier work
[4] = test system: long term reconstituting cells (HSPC); test: Competitive transplantation of mobilized peripheral blood into lethally irradiated congenic recipients (incl. serial transplant); assay type: in vivo, mice; conditions: for potency of mobilization with AMD3100 compared with AMD3100 alone: AMD3100 5 mg/kg plus heparin 100 U/mouse or protamine sulfate 40 mg/kg, relative frequency of engrafted donor cells, AMD3100 alone = 1; for stem cell mobilization by the agent alone: Example 3, data not shown; for mobilization of long term reconstituting cells (PB competitive transplantation, primary recipients): wild type mice, single dose heparin 100 U/mouse added to G-CSF regimen
Protocol: Blood from animals treated with single dose AMD3100 alone (5 mg/kg) or AMD3100 plus heparin (100 U/mouse) or protamine sulfate (40 mg/kg) was used in transplantation of lethally irradiated congenic hosts and the relative frequency of engrafted donor cells is indicated. Line at 1=AMD3100 alone. Results are from 6-10 animals/group.
Hypothesizing that endogenous HSPG could be competed with by known pharmacologic HSPG, we examined whether heparin sulfate could mimic the EXT1 deletion effect on stem cell localization. Initially, this was done using a single dose of heparin sulfate (100 U/mouse) after a standard G-CSF mobilization regimen, harvesting the peripheral blood and using it to reconstitute lethally irradiated congenic recipients (FIG. 3). The primary recipients were then harvested after 4 months and used to transplant secondary lethally irradiated recipients.
For non-competitive BM transplantation, to create the chimeras described in FIG. 1a, one million whole BM cells from B6.SJL (CD45.1) mice were transplanted into lethally irradiated (9.5 Gy from a Cesium source 4-24 hours before transplantation) Ext1-loxP/loxP-Mx1cre (CD45.2) recipients six-to-eight weeks before pIpC administration. Neutrophil and platelet recovery assay was performed as previously described (Hoggatt et al., 2013). Briefly, 3 million mobilized PB mononuclear cells (MNC) from C57BL/6J (CD45.2) mice were transplanted into lethally irradiated B6.SJL (CD45.1) mice and followed up for at least 36 days. For transplantation without cytotoxic conditioning, 1, 4 or 8 million whole BM cells from B6.SJL mice were transplanted into Ext1-loxP/loxP-Mx1cre recipients three weeks after pIpC administration. For competitive transplantation of mobilized peripheral blood (PB), 150 ul of PB (CD45.2) was mixed with 2×10^5 congenic BM support cells and injected into lethally irradiated CD45.1 recipients. Cells were infused via lateral tail vein injection. Engraftment was monitored at 4-week intervals by FACS analysis.
(§1) Recombinant human G-CSF (Neupogen, Filgrastrim) was administered at 125 ug/kg of TBW every 12 hours for eight consecutive injections. Heparin Sodium (APP Pharmaceuticals) was injected i.p. at a single dose of 100 U. Hirudin was used at 40 mg/kg of TBW in a single dose. Vcam1 neutralizing antibody and the corresponding isotype control (Rat IgG2a, k) were injected intravenously at 2 mg/kg of TBW every day for three doses and PB samples were obtained through retro-orbital bleeding the day following the last injection. AMD3100 was administered subcutaneously at a single dose of 5 mg/kg TBW. PB samples were obtained through retro-orbital bleeding 3 hours after the last injection of G-CSF and 1 hour after Heparin, AMD3100, or Hirudin injection.

[5] = test system: Vcam1; test: Vcam1 protein level in CD45−Ter119−Mx1+ mesenchymal cells (flow cytometry); assay type: in vivo, mice; conditions: heparin one hour before PB harvest vs vehicle
Protocol: Immunophenotypic characterization of the hematopoietic and mesenchymal compartments was performed as previously described (Gurumurthy et al., 2010). For details see supplementary information. Vcam1 and Cxcl12 protein levels were evaluated with an anti-Vcam1-APC and an anti-Cxcl12-APC antibody respectively and the corresponding isotype controls (R&D Systems). All data collection was performed on an LSRII or FACS Aria II (Beckon Dickinson) and data analysis was performed with FlowJo (Treestar).
as §1

[6] = test system: circulating hematopoietic stem/progenitor cells (HSPC); test: Peripheral blood colony forming unit (CFU-C) assay of circulating progenitors after mobilization; assay type: in vivo, mice
Protocol: as §1
CFU assays were performed as previously described (Ferraro et al., 2011). Equal volumes of PB (50 to 200 juL depending upon the experiment) were subjected to red blood cell lysis with ammonium-chloride-potassium buffer, resuspended in 4 ml of methocult M3434 (Stem Cell Technologies), plated in 35 mm culture dishes (1 mL/dish) and cultured at 37° C. for 8 days before scoring for colony formation.

[7] = Peripheral WBC count (complete blood count) after mobilization; assay type: in vivo; conditions: C57BL/6J mice; heparin alone 100 U/mouse one hour before PB harvest, vs vehicle
Protocol: as §1
Blood counts were performed with the automatic Vetscan HM2 (Abaxis).

[8] = test system: HSPCs; test: Type I diabetes-induced mobilopathy model, G-CSF mobilization with PB competitive transplantation; assay type: in vivo, mice; conditions: G-CSF alone
Source text: Hematopoietic stem cell transplantation remains the gold standard curative therapy for a number of hematological disorders. However, G-CSF mobilization resistance may compromise lifesaving therapy for some individuals. We therefore evaluated whether genetic or pharmacological competitive inhibition of HSPG may facilitate G-CSF-induced HSPC egress from the BM in a murine model of Type I diabetes-induced mobilopathy (Ferraro et al., 2011). […] However, the compromised response to G-CSF was fully corrected in Type I diabetic mice lacking Ext1 expression in Mx1+ mesenchymal cells (FIG. 9K).
For non-competitive BM transplantation, to create the chimeras described in FIG. 1a, one million whole BM cells from B6.SJL (CD45.1) mice were transplanted into lethally irradiated (9.5 Gy from a Cesium source 4-24 hours before transplantation) Ext1-loxP/loxP-Mx1cre (CD45.2) recipients six-to-eight weeks before pIpC administration. Neutrophil and platelet recovery assay was performed as previously described (Hoggatt et al., 2013). Briefly, 3 million mobilized PB mononuclear cells (MNC) from C57BL/6J (CD45.2) mice were transplanted into lethally irradiated B6.SJL (CD45.1) mice and followed up for at least 36 days. […] Engraftment was monitored at 4-week intervals by FACS analysis. […]

Molecule: GRO-β: CXCR2 agonist chemokine capable of rapidly mobilizing HSPCs
- changes in marrow morphology by immunohistochemistry [1]: not associated with changes in marrow morphology
- time of maximal HSPC mobilization post infusion ([2]; mice): 15 min
- engraftment potential of mobilized long term repopulating HSCs compared with G-CSF ([2]; mouse, in vivo): superior engraftment potential

Molecule: c1cc(CN2CCCNCCNCCCNCC2)ccc1CN1CCCNCCNCCCNCC1 [AMD3100]
- patients reporting diarrhea or injection site reaction ([3]; after Plerixafor administration): approximately 33%
- G-CSF-induced mobilization in Ext1 deficient mice (relative PB reconstitution) ([4]; AMD3100 in combination with G-CSF vs G-CSF alone): augments G-CSF-induced mobilization

Molecule: protamine sulfate
- potency of mobilization with AMD3100 compared with AMD3100 alone [4]: enhance potency of mobilization compared with AMD3100 alone
- stem cell mobilization by the agent alone [4]: Neither were sufficiently effective alone

Molecule: hirudin
- effect on G-CSF-induced HSPC mobilization (relative PB reconstitution 16 weeks post transplantation) ([4]; hirudin 40 mg/kg single dose with G-CSF, C57BL/6J mice): did not impact G-CSF-induced HSPC mobilization

Molecule: heparin
- Vcam1 levels in Mx1+ mesenchymal cells [5]: does not modulate Vcam1 levels
- number of circulating HSPCs as measured by CFU assays ([6]; C57BL/6J mice, heparin alone 100 U/mouse one hour before PB harvest, vs vehicle (PBS)): modest, yet significant increase; also recorded: enhanced HSPC mobilization compared to vehicle
- AMD3100-induced mobilization (CFU) with co-administration of heparin ([6]; heparin plus AMD3100 vs AMD3100 alone): enhances AMD3100-induced mobilization
- WBC counts [7]: without a significant change
- ability to induce mobilization on its own ([2]; Frenette and Weiss, 2000): lack the ability to induce mobilization on its own
- potency of mobilization with AMD3100 compared with AMD3100 alone [4]: enhance potency of mobilization compared with AMD3100 alone
- stem cell mobilization by the agent alone [4]: Neither were sufficiently effective alone
- secondary engraftment / self-renewal of mobilized cells (serial transplantation) ([4]; heparin 100 U/mouse added to G-CSF regimen, vs G-CSF alone, secondary lethally irradiated recipients): distinctly more capable at providing secondary engraftment
- HSPC mobilization in Ext1 mutant (EXT1 KO) mice ([4]; heparin added to G-CSF vs G-CSF alone, Ext1 mutant mice): loss of its effect
- mobilization of long term reconstituting cells (PB competitive transplantation, primary recipients) ([4]; vs G-CSF alone): significantly enhances G-CSF induced mobilization
- mobilization of long term reconstituting cells (PB competitive transplantation, primary recipients) ([4]; vs G-CSF alone, listed as heparin sulfate): additive mobilization of stem cells

B1: G-CSF: Recombinant human G-CSF, hematopoietic growth factor used clinically to mobilize HSC and HPC (protein, UniProt P09919 31-207, looked up)
Granulocyte …: TPLGPASSLPQSFLLKCLEQVRKIQGDGAALQEKLVSECATYKLCHPEELVLLGHSLGIPWAPLSSCPSQALQLAGCLSQLHSGLFLYQGLLQALEGISPELGPTLDTLQLDVADFATTIWQQMEELGMAPALQPTQGAMPAFASAFQRRAGGVLVASHLQSFLEVSYRVLRHLAQP
modifications: filgrastim
notes: Recombinant human G-CSF, hematopoietic growth factor used clinically to mobilize HSC and HPC
- poor mobilization in response to G-CSF, share of normal, healthy donors ([3]; normal, healthy donors): 15%
- patients failing to mobilize an optimal CD34+ cell number for autologous transplantation ([3]; patients, G-CSF mobilization): Up to 60%
- HSPC mobilization in Type I diabetic mice [8]: failed to efficiently mobilize HSPCs
